From EP0205308B1, “Scytophycins” (Moore, Richard Elliott, priority 1985, dated 1986)
Marks after values point to notes of the source that are not given here. Starred links: 1 amine or outer side, 2 acyl side, 3 side chain; linkers in the order of their positions; H or OH if unused. Non-standard residues stand in square brackets, D forms with d. Residues, ends and D or L forms follow the SMILES beside them. X1 = CCC(N[*:1])C(C)C(=O)O[C@H](C(=O)[*:2])[C@@H](C)CC; X2 = C[C@H](N[*:1])C(=O)C(C)(C)C(=O)[*:2]; NMeY = CN[C@@H](Cc1ccc(O)cc1)C(=O)O; NMeI = CC[C@H](C)[C@H](NC)C(=O)O; NMeV = CN[C@H](C(=O)O)C(C)C

What was measured:
Pythium ultimum X751 = assay: In vitro agar-diffusion test; type: cell-based; conditions: for Zone of Inhibition Size: Table 6, level 1 mg/mL
Method: (§1) The activity of scytophycin compounds against pathogenic fungi in standard in vitro agar-diffusion tests, using ¼"(6mm) discs holding ~30 µL of test solution, is illustrated in Tables 6-12.

Rhizoctonia solani X767 = assay: In vitro agar-diffusion test; type: cell-based; set-up: key: - = not active
Method: as §1

[1] = test system: Sclerotina homoeocarpa X768; assay: In vitro agar-diffusion test; type: cell-based; set-up: key: - = not active
Method: as §1

[2] = test system: KB human epidermoid carcinoma; assay: Cytotoxicity, minimum toxic dose (method of Furusawa and Cutting); type: cell-based; conditions: KB human epidermoid carcinoma cell line
Method: (§2) The scytophycin compounds are potent cytotoxins. For example, the minimum toxic doses of scytophycins A and B against KB human epidermoid carcinoma and NIH/3T3 mouse fibroblast cell lines were determined to be 1 ng/mL and 0.65 ng/mL, respectively, using methods described by E. Furusawa and W. Cutting in Ann. New York Acad. Sci. 173, 669-679 (1970).

NIH/3T3 mouse fibroblast = assay: as above; type: cell-based; conditions: NIH/3T3 mouse fibroblast cell line
Method: as §2

B16 Melanoma = assay: Survival of mice with intraperitoneally implanted tumor; type: in vivo, BDF1 Mice; conditions: for activity against intraperitoneally implanted tumor: B16 melanoma, result in words
Method: (§3) Female hybrid BDF1 (DBA/2 x C57BL/6) mice were used for the evaluation of the scytophycins against the three tumors. The mice were first inoculated intraperitoneally with 10⁶ cells of P388 ascites leukemia (P388), 2 to 6 x 10⁵ cells of Lewis lung carcinoma (LLC) homogenate, or 0.3 mL of 20% homogenate of B16 tumor (B16) masses. Drug treatment was started the next day (day 1) and continued daily for 6-9 days.

Lewis Lung Carcinoma = assay: as above; type: in vivo, BDF1 Mice; conditions: for activity against intraperitoneally implanted tumor: Lewis lung carcinoma, result in words; for % T/C / Mean Survival Time, Days Treated: LLC, 9 days of treatment
Method: as §3

[3] = test system: P388 Lymphocytic Leukemia; assay: as above; type: in vivo, BDF1 Mice; conditions: for activity against intraperitoneally implanted tumor: P388 lymphocytic leukemia, result in words
Method: as §3

[4] = test system: Saccharomyces pastorianus X52; assay: In vitro agar-diffusion test; type: cell-based; set-up: key: T = trace
Method: as §1

Candida albicans X657 = assay: In vitro agar-diffusion test; type: cell-based; conditions: for inhibition of fungal pathogen: Candida albicans, general statement in words
Method: as §1

Neurospora crassa X846 = assay: In vitro agar-diffusion test; type: cell-based
Method: as §1

[5] = type: in vivo; conditions: mice, administered IP
Method: At sublethal doses, the scytophycin compounds are antineoplastic agents. The minimum lethal dose of scytophycin B in mice, when administered IP, is about 650 µg/kg.

[6] = P388, 1 µg/Mouse, 8 days of treatment
[7] = B16, 2 µg/Mouse, 8 days of treatment
[8] = B16, 4 µg/Mouse, 8 days of treatment
[9] = B16, 8 µg/Mouse, 8 days of treatment
[10] = P388, 0.5 µg/Mouse, 8 days of treatment
[11] = P388, 0.65 µg/Mouse, 8 days of treatment
[12] = P388, 2 µg/Mouse, 8 days of treatment
[13] = P388, 3.25 µg/Mouse, 6 days of treatment
[14] = P388, 4 µg/Mouse, 8 days of treatment

CCC1NC(=O)[C@H](C)NC(=O)C(C)(C)C(=O)[C@H](C)NC(=O)[C@H](Cc2ccc(OC)cc2)N(C)C(=O)[C@H](C(C)C)N(C)C(=O)CNC(=O)[C@H]([C@@H](C)CC)N(C)C(=O)CNC(=O)[C@H]([C@@H](C)CC)OC(=O)C1C (some centres unmarked) [Majusculamide C, reference compound] (cyclo(A[X1]G[NMeI]G[NMeV][NMeY](Me)[X2]))
Size of Zone of Inhibition (mm) (Pythium ultimum X751; Table 10, 0.01 mg/mL): 10^a mm | Size of Zone of Inhibition (mm) (Pythium ultimum X751; Table 10, 0.1 mg/mL): 18 mm | Size of Zone of Inhibition (mm) (Pythium ultimum X751; Table 10, 1.0 mg/mL): >30 mm | Size of Zone of Inhibition (mm) (Rhizoctonia solani X767; Table 10, 0.01 mg/mL): - | Size of Zone of Inhibition (mm) (Rhizoctonia solani X767; Table 10, 0.1 mg/mL): - | Size of Zone of Inhibition (mm) (Rhizoctonia solani X767; Table 10, 1.0 mg/mL): 20^a mm | Size of Zone of Inhibition (mm) ([1]; Table 10, 0.01 mg/mL): - | Size of Zone of Inhibition (mm) ([1]; Table 10, 0.1 mg/mL): - | Size of Zone of Inhibition (mm) ([1]; Table 10, 1.0 mg/mL): 17 mm

Scytophycin A
minimum toxic dose [2]: 1 ng/mL | minimum toxic dose (NIH/3T3 mouse fibroblast): 1 ng/mL | activity against intraperitoneally implanted tumor (B16 Melanoma): did not exhibit activity | activity against intraperitoneally implanted tumor (Lewis Lung Carcinoma): moderate activity | % T/C [3, 6]: 125% | Mean Survival Time, Days Treated [3, 6]: 10.0 days | activity against intraperitoneally implanted tumor [3]: moderate activity | Size of Zone of Inhibition (mm) ([4]; Table 7, 0.01 mg/mL): T^a | Size of Zone of Inhibition (mm) ([4]; Table 7, 0.1 mg/mL): 17 mm | Size of Zone of Inhibition (mm) ([4]; Table 7, 1 mg/mL): 24 mm | inhibition of fungal pathogen (Candida albicans X657): inhibit | Size of Zone of Inhibition (mm) (Candida albicans X657; Table 7, 0.01 mg/mL): 12 mm | Size of Zone of Inhibition (mm) (Candida albicans X657; Table 7, 0.1 mg/mL): 19 mm | Size of Zone of Inhibition (mm) (Candida albicans X657; Table 7, 1 mg/mL): 23 mm | Size of Zone of Inhibition (mm) (Neurospora crassa X846; Table 7, 0.01 mg/mL): 18 mm | Size of Zone of Inhibition (mm) (Neurospora crassa X846; Table 7, 0.1 mg/mL): 25 mm | Size of Zone of Inhibition (mm) (Neurospora crassa X846; Table 7, 1 mg/mL): 30 mm | Zone of Inhibition Size (Pythium ultimum X751): 37 mm | Size of Zone of Inhibition (mm) (Pythium ultimum X751; Table 10, 0.01 mg/mL): 20 mm | Size of Zone of Inhibition (mm) (Pythium ultimum X751; Table 10, 0.1 mg/mL): >30 mm | Size of Zone of Inhibition (mm) (Pythium ultimum X751; Table 10, 1.0 mg/mL): >30 mm | Size of Zone of Inhibition (mm) (Rhizoctonia solani X767; Table 10, 0.01 mg/mL): 13 mm | Size of Zone of Inhibition (mm) (Rhizoctonia solani X767; Table 10, 0.1 mg/mL): 23 mm | Size of Zone of Inhibition (mm) (Rhizoctonia solani X767; Table 10, 1.0 mg/mL): 30 mm | Size of Zone of Inhibition (mm) ([1]; Table 10, 0.01 mg/mL): 20 mm | Size of Zone of Inhibition (mm) ([1]; Table 10, 0.1 mg/mL): 30 mm | Size of Zone of Inhibition (mm) ([1]; Table 10, 1.0 mg/mL): >30 mm

Scytophycin B
minimum lethal dose [5]: about 650 µg/kg | minimum toxic dose [2]: 0.65 ng/mL | minimum toxic dose (NIH/3T3 mouse fibroblast): 0.65 ng/mL | % T/C (B16 Melanoma; [7]): 102% | Mean Survival Time, Days Treated (B16 Melanoma; [7]): 19.4 days | % T/C (B16 Melanoma; [8]): 104% | Mean Survival Time, Days Treated (B16 Melanoma; [8]): 19.8 days | % T/C (B16 Melanoma; [9]): 63% | Mean Survival Time, Days Treated (B16 Melanoma; [9]): 12.0 days | toxicity remark in % T/C column (B16 Melanoma; [9]): toxic | activity against intraperitoneally implanted tumor (B16 Melanoma): did not exhibit activity | % T/C (Lewis Lung Carcinoma; 0.5 µg/Mouse): 106% | Mean Survival Time, Days Treated (Lewis Lung Carcinoma; 0.5 µg/Mouse): 10.4 days | % T/C (Lewis Lung Carcinoma; 1 µg/Mouse): 114% | Mean Survival Time, Days Treated (Lewis Lung Carcinoma; 1 µg/Mouse): 11.2 days | % T/C (Lewis Lung Carcinoma; 2 µg/Mouse): 124% | Mean Survival Time, Days Treated (Lewis Lung Carcinoma; 2 µg/Mouse): 12.2 days | % T/C (Lewis Lung Carcinoma; 4 µg/Mouse): 129% | Mean Survival Time, Days Treated (Lewis Lung Carcinoma; 4 µg/Mouse): 12.6 days | activity against intraperitoneally implanted tumor (Lewis Lung Carcinoma): moderate activity | % T/C [3, 10]: 100% | Mean Survival Time, Days Treated [3, 10]: 9.4 days | % T/C [3, 11]: 125% | Mean Survival Time, Days Treated [3, 11]: 10.0 days | % T/C [3, 6]: 113% | Mean Survival Time, Days Treated [3, 6]: 10.6 days | % T/C [3, 12]: 130% | Mean Survival Time, Days Treated [3, 12]: 12.2 days | % T/C [3, 13]: 136% | Mean Survival Time, Days Treated [3, 13]: 11.4 days | % T/C [3, 14]: 128% | Mean Survival Time, Days Treated [3, 14]: 12.0 days | activity against intraperitoneally implanted tumor [3]: moderate activity | Size of Zone of Inhibition (mm) ([4]; Table 7, 0.01 mg/mL): 20 mm | Size of Zone of Inhibition (mm) ([4]; Table 7, 0.1 mg/mL): 20 mm | Size of Zone of Inhibition (mm) ([4]; Table 7, 1 mg/mL): 27 mm | Size of Zone of Inhibition (mm) ([4]; Table 8, 0.33 mg/mL): 24 mm | Size of Zone of Inhibition (mm) ([4]; Table 8, 1 mg/mL): 24 mm | inhibition of fungal pathogen (Candida albicans X657): inhibit | Size of Zone of Inhibition (mm) (Candida albicans X657; Table 7, 0.01 mg/mL): 21 mm | Size of Zone of Inhibition (mm) (Candida albicans X657; Table 7, 0.1 mg/mL): 22 mm | Size of Zone of Inhibition (mm) (Candida albicans X657; Table 7, 1 mg/mL): 26 mm | Size of Zone of Inhibition (mm) (Candida albicans X657; Table 8, 0.33 mg/mL): 25 mm | Size of Zone of Inhibition (mm) (Candida albicans X657; Table 8, 1 mg/mL): 31 mm | Size of Zone of Inhibition (mm) (Neurospora crassa X846; Table 7, 0.01 mg/mL): 30 mm | Size of Zone of Inhibition (mm) (Neurospora crassa X846; Table 7, 0.1 mg/mL): 27 mm | Size of Zone of Inhibition (mm) (Neurospora crassa X846; Table 7, 1 mg/mL): 32 mm | Size of Zone of Inhibition (mm) (Neurospora crassa X846; Table 8, 0.33 mg/mL): 36 mm | Size of Zone of Inhibition (mm) (Neurospora crassa X846; Table 8, 1 mg/mL): 36 mm | Zone of Inhibition Size (Pythium ultimum X751): 37 mm | Size of Zone of Inhibition (mm) (Pythium ultimum X751; Table 10, 0.01 mg/mL): 30 mm | Size of Zone of Inhibition (mm) (Pythium ultimum X751; Table 10, 0.1 mg/mL): 30^a mm | Size of Zone of Inhibition (mm) (Pythium ultimum X751; Table 10, 1.0 mg/mL): 30^a mm | Size of Zone of Inhibition (mm) (Pythium ultimum X751; Table 11, 0.33 mg/mL): 30 mm | Size of Zone of Inhibition (mm) (Pythium ultimum X751; Table 11, 1.0 mg/mL): 30 mm | Size of Zone of Inhibition (mm) (Rhizoctonia solani X767; Table 10, 0.01 mg/mL): 30 mm | Size of Zone of Inhibition (mm) (Rhizoctonia solani X767; Table 10, 0.1 mg/mL): >30 mm | Size of Zone of Inhibition (mm) (Rhizoctonia solani X767; Table 10, 1.0 mg/mL): >30 mm | Size of Zone of Inhibition (mm) (Rhizoctonia solani X767; Table 11, 0.33 mg/mL): 40 mm | Size of Zone of Inhibition (mm) (Rhizoctonia solani X767; Table 11, 1.0 mg/mL): 46^a mm | Size of Zone of Inhibition (mm) ([1]; Table 10, 0.01 mg/mL): >30 mm | Size of Zone of Inhibition (mm) ([1]; Table 10, 0.1 mg/mL): >30 mm | Size of Zone of Inhibition (mm) ([1]; Table 10, 1.0 mg/mL): >30 mm | Size of Zone of Inhibition (mm) ([1]; Table 11, 0.33 mg/mL): 40 mm | Size of Zone of Inhibition (mm) ([1]; Table 11, 1.0 mg/mL): 44 mm
